This note sets out measurements from patent US10919851B2, “2-pyrrolidine phenylhydrazides antibacterial agents” (ABAC THERAPEUTICS, S.L, priority 2016, dated 2021).

The structures appear in SMILES notation. In brackets after ≈: the same amount, converted by molar mass. Bounds are passed on as bounds.

One data set has as its system Acinetobacter baumannii. As to the kind of experiment: MIC, standard microtiter dilution method (CLSI M07-A9). To be noted: Cation adjusted Mueller-Hinton Broth, 37° C., 24 hours. It is filed as cell-based. The procedure: (§1) The products of the present invention were tested for their activity against Acinetobacter baumannii (A. baumannii) as well as against the following bacteria: Staphylococcus aureus (S. aureus), Streptococcus pneumoniae (S. pneumoniae), Enterococcus faecium (E. faecium), Pseudomonas aeruginosa (P. aeruginosa), Klebsiella pneumoniae (K. pneumoniae) and Escherichia coli (E. coli). Minimal inhibitory concentrations (MICs) were determined using a standard microtiter dilution method, according to the Clinical and Laboratory Standards Institute (CLSI) procedures, in particular according to […]-A9: “Methods for Dilution Antimicrobial Susceptibility Tests for Bacteria That Grow Aerobically; Approved Standard-Ninth Edition”. Briefly, compounds were dissolved with dimethyl sulfoxide (DMSO) at 12.8 mg/mL. Serial two-fold dilutions of compounds were performed in DMSO and 1 μl of each dilution were transferred into microtiter culture plates, followed by 100 μl of inoculated culture media to give a final microorganism concentration of 5×10^5 colony-forming units/mL. Plates were incubated at 37° C. for 24 hours and MICs determined as the lowest compound concentration that inhibited growth. Media used in determinations were Cation adjusted Mueller-Hinton Broth for all the microorganisms except for S. pneumoniae and E. faecium whose culture media were supplemented with 2.5% of lysed horse blood. Incubations were performed at air atmosphere except S. pneumoniae cultures that were incubated with 5% CO2 atmosphere.

The next data set relates to Enterococcus faecium. The data set is described as above. It counts as cell-based. To be noted: media with 2.5% lysed horse blood, 37° C., 24 hours, read-out: MIC E. faecium. The procedure: as §1
The subject of a further data set is Escherichia coli. The description is as above. It is filed as cell-based. To be noted: Cation adjusted Mueller-Hinton Broth, 37° C., 24 hours. The procedure:
as §1

The next data set has as its system Klebsiella pneumoniae. Described as above. The note with it: Cation adjusted Mueller-Hinton Broth, 37° C., 24 hours, read-out: MIC K. pneumoniae. It is filed as cell-based. The procedure:
as §1

Another data set relates to Pseudomonas aeruginosa. The description is as above. It counts as cell-based. To be noted: Cation adjusted Mueller-Hinton Broth, 37° C., 24 hours, read-out: MIC P. aeruginosa. The procedure: as §1
The test system of a further data set is Staphylococcus aureus. The description is as above. It is filed as cell-based. To be noted: Cation adjusted Mueller-Hinton Broth, 37° C., 24 hours, read-out: MIC S. aureus. The procedure: as §1
The next data set relates to Streptococcus pneumoniae. Described as above. It is filed as cell-based. The note with it: media with 2.5% lysed horse blood, 5% CO2, 37° C., 24 hours, read-out: MIC S. pneumoniae. The procedure: as §1

For `Cl.N=C(N)N1CCCC1C(=O)NNc1ccc(F)cc1` (stereo not drawn) [Example 30, 2-(2-(4-fluorophenyl)hydrazinecarbonyl)pyrrolidine-1-carboximidamide hydrochloride], the MIC (usually the smallest concentration in the dilution series that meets the test's criterion for growth inhibition) against Acinetobacter baumannii was 2 µg/mL; with Enterococcus faecium, greater than 128 µg/mL; with Escherichia coli, greater than 128 µg/mL; in the data set on Klebsiella pneumoniae, greater than 128 µg/mL; in the data set with Pseudomonas aeruginosa, greater than 128 µg/mL; in the data set with Staphylococcus aureus, greater than 128 µg/mL. In addition, in the data set on Streptococcus pneumoniae, the MIC was greater than 128 µg/mL.
As to `CN1CC2CC2C1C(=O)NNc1ccc(F)cc1` (stereo not drawn) [Example 26, N′-(4-fluorophenyl)-3-methyl-3-azabicyclo[3.1.0]hexane-2-carbohydrazide], the MIC is 0.25 µg/mL (≈ 1 µM) against Acinetobacter baumannii; greater than 128 µg/mL with Enterococcus faecium; greater than 128 µg/mL with Escherichia coli; greater than 128 µg/mL in the data set on Klebsiella pneumoniae; greater than 128 µg/mL in the data set on Pseudomonas aeruginosa; greater than 128 µg/mL in the data set on Staphylococcus aureus. The MIC in the data set with Streptococcus pneumoniae is greater than 128 µg/mL.
On to `Cl.O=C(NNc1ccc(F)cc1)C1CCCN1C(=O)N1CCNCC1` (stereo not drawn) [Example 18, N′-(4-fluorophenyl)-1-(piperazine-1-carbonyl)pyrrolidine-2-carbohydrazide hydrochloride], for which the MIC against Acinetobacter baumannii was 8 µg/mL; in the data set on Enterococcus faecium it was greater than 128 µg/mL; in the data set with Escherichia coli it was greater than 128 µg/mL; in the data set on Klebsiella pneumoniae, greater than 128 µg/mL; with Pseudomonas aeruginosa it was greater than 128 µg/mL; in the data set on Staphylococcus aureus, 128 µg/mL. In addition, the MIC in the data set with Streptococcus pneumoniae is greater than 128 µg/mL.
Take `NC(=O)N1CCC[C@@H]1C(=O)NNc1ccc(F)cc1` [Example 2, (R)-2-(2-(4-fluorophenyl)hydrazinecarbonyl)pyrrolidine-1-carboxamide]: the MIC with Acinetobacter baumannii is 4 µg/mL (≈ 15 µM); in the data set with Enterococcus faecium, greater than 128 µg/mL; in the data set with Escherichia coli, greater than 128 µg/mL; with Klebsiella pneumoniae, greater than 128 µg/mL; with Pseudomonas aeruginosa it was greater than 128 µg/mL; with Staphylococcus aureus, greater than 128 µg/mL. The MIC in the data set with Streptococcus pneumoniae is greater than 128 µg/mL.
Turning to `NC(=O)N1CCC[C@H]1C(=O)NNc1ccc(F)cc1` [Example 3, (S)-2-(2-(4-fluorophenyl) hydrazinecarbonyl) pyrrolidine-1-carboxamide], the MIC was 4 µg/mL (≈ 15 µM) in the data set on Acinetobacter baumannii; greater than 128 µg/mL with Enterococcus faecium; greater than 128 µg/mL with Escherichia coli; greater than 128 µg/mL with Klebsiella pneumoniae; greater than 128 µg/mL in the data set on Pseudomonas aeruginosa; greater than 128 µg/mL in the data set on Staphylococcus aureus. The MIC with Streptococcus pneumoniae is greater than 128 µg/mL.
Turning to `CC(=O)N1CCC[C@@H]1C(=O)NNc1ccc(F)cc1` [Example 14, (R)-1-acetyl-N′-(4-fluorophenyl)pyrrolidine-2-carbohydrazide], the MIC against Acinetobacter baumannii is 2 µg/mL (≈ 7.54 µM); in the data set with Enterococcus faecium, greater than 128 µg/mL; with Escherichia coli it was greater than 128 µg/mL; in the data set with Klebsiella pneumoniae, greater than 128 µg/mL; in the data set with Pseudomonas aeruginosa, greater than 128 µg/mL; with Staphylococcus aureus it was greater than 128 µg/mL. The MIC with Streptococcus pneumoniae was greater than 128 µg/mL.
For the compound `CN1CCCC1(C)C(=O)NNc1ccc(F)cc1` (stereo not drawn) [Example 16, N′-(4-fluorophenyl)-1,2-dimethylpyrrolidine-2-carbohydrazide], the MIC in the data set with Acinetobacter baumannii is 0.25 µg/mL (≈ 0.995 µM); with Enterococcus faecium, greater than 128 µg/mL; against Escherichia coli it was greater than 128 µg/mL; with Klebsiella pneumoniae, greater than 128 µg/mL; with Pseudomonas aeruginosa it was greater than 128 µg/mL; in the data set with Staphylococcus aureus, greater than 128 µg/mL. Besides, the MIC with Streptococcus pneumoniae was greater than 128 µg/mL.
Turning to `NC(=O)N1CCCC1C(=O)NNc1ccc(OC(F)(F)F)cc1` (stereo not drawn) [Example 7, 2-(2-(4-(trifluoromethoxy)phenyl)hydrazinecarbonyl)pyrrolidine-1-carboxamide], the MIC is 8 µg/mL (≈ 24.1 µM) against Acinetobacter baumannii; greater than 128 µg/mL in the data set with Enterococcus faecium; greater than 128 µg/mL in the data set with Escherichia coli; greater than 128 µg/mL in the data set with Klebsiella pneumoniae; greater than 128 µg/mL with Pseudomonas aeruginosa; 128 µg/mL (≈ 385 µM) in the data set with Staphylococcus aureus. Further, in the data set on Streptococcus pneumoniae, the minimal inhibitory concentration (MIC) was greater than 128 µg/mL.
With `O=C(NNc1ccc(F)cc1)C1CCCN1O` (stereo not drawn) [Example 15, N′-(4-fluorophenyl)-1-hydroxypyrrolidine-2-carbohydrazide], the MIC in the data set with Acinetobacter baumannii is 1 µg/mL (≈ 4.18 µM); with Enterococcus faecium, greater than 128 µg/mL; in the data set on Escherichia coli, greater than 128 µg/mL; with Klebsiella pneumoniae, greater than 128 µg/mL; in the data set with Pseudomonas aeruginosa, greater than 128 µg/mL; in the data set with Staphylococcus aureus, greater than 128 µg/mL. In addition, in the data set with Streptococcus pneumoniae, the MIC was greater than 128 µg/mL.
`O=C(NNc1ccc(F)cc1)[C@@H]1CCCN1CC1CC1` [Example 25, (S)-1-(cyclopropylmethyl)-N′-(4-fluorophenyl)pyrrolidine-2-carbohydrazide]: the MIC against Acinetobacter baumannii was 0.25 µg/mL (≈ 0.901 µM); with Enterococcus faecium, greater than 128 µg/mL; with Escherichia coli, greater than 128 µg/mL; in the data set on Klebsiella pneumoniae, greater than 128 µg/mL; with Pseudomonas aeruginosa it was greater than 128 µg/mL; with Staphylococcus aureus, greater than 128 µg/mL. For the same compound, the MIC in the data set with Streptococcus pneumoniae was greater than 128 µg/mL.
Consider `NC(=O)N1CCCC1C(=O)NNc1ccc2c(c1)OCCO2` (stereo not drawn) [Example 11, 2-(2-(2,3-dihydrobenzo[b][1,4]dioxin-6-yl) hydrazinecarbonyl)pyrrolidine-1-carboxamide], for which the minimal inhibitory concentration (MIC) against Acinetobacter baumannii was 8 µg/mL (≈ 26.1 µM); in the data set with Enterococcus faecium it was greater than 128 µg/mL; against Escherichia coli it was greater than 128 µg/mL; with Klebsiella pneumoniae it was greater than 128 µg/mL; with Pseudomonas aeruginosa it was greater than 128 µg/mL; in the data set on Staphylococcus aureus, greater than 128 µg/mL. For the same compound, the MIC with Streptococcus pneumoniae was greater than 128 µg/mL.
`NC(=O)N1CCCC1C(=O)NNc1ccc(Cl)cc1F` (stereo not drawn) [Example 9, 2-(2-(4-chloro-2-fluorophenyl)hydrazinecarbonyl)pyrrolidine-1-carboxamide]: the MIC in the data set on Acinetobacter baumannii was 8 µg/mL (≈ 26.6 µM); with Enterococcus faecium it was greater than 128 µg/mL; in the data set with Escherichia coli it was greater than 128 µg/mL; with Klebsiella pneumoniae, greater than 128 µg/mL; in the data set on Pseudomonas aeruginosa it was greater than 128 µg/mL; in the data set with Staphylococcus aureus, greater than 128 µg/mL. Besides, in the data set on Streptococcus pneumoniae, the MIC was greater than 128 µg/mL.
Consider `COc1ccc(NNC(=O)C2CCCN2C(N)=O)cc1` (stereo not drawn) [Example 10, 2-(2-(4-methoxyphenyl)hydrazinecarbonyl)pyrrolidine-1-carboxamide], for which the MIC with Acinetobacter baumannii was 2 µg/mL (≈ 7.19 µM); in the data set with Enterococcus faecium, greater than 128 µg/mL; against Escherichia coli, greater than 128 µg/mL; with Klebsiella pneumoniae, greater than 128 µg/mL; with Pseudomonas aeruginosa, greater than 128 µg/mL; in the data set with Staphylococcus aureus it was greater than 128 µg/mL. For the same compound, the MIC with Streptococcus pneumoniae was greater than 128 µg/mL.
Consider `NC(=O)N1CCCC1C(=O)NNc1ccc(F)cc1` (stereo not drawn) [Example 4, 2-(2-(4-fluorophenyl)hydrazinecarbonyl)pyrrolidine-1-carboxamide], for which the melting point (as a rule, the temperature, or range, at which the solid turns liquid) lay in the range of 140 to 144 °C. This compound also had an MIC in the data set with Acinetobacter baumannii of 2 µg/mL (≈ 7.51 µM). Also, the MIC in the data set with Enterococcus faecium was greater than 128 µg/mL. The compound also returned an MIC in the data set with Escherichia coli greater than 128 µg/mL. The MIC in the data set on Klebsiella pneumoniae is greater than 128 µg/mL. In addition, the MIC in the data set on Pseudomonas aeruginosa was greater than 128 µg/mL. In the data set with Staphylococcus aureus, the MIC is greater than 128 µg/mL. In addition, in the data set on Streptococcus pneumoniae, the MIC is greater than 128 µg/mL.
